Paper PMC10035947, “Development of novel anilinoquinazoline-based carboxylic acids as non-classical carbonic anhydrase IX and XII inhibitors” (Journal of Enzyme Inhibition and Medicinal Chemistry, 2023)
Like-named read-outs stand apart in the source and are kept apart here.

Experiments:
Experiment in all cases: NCI SRB assay
HS 578 T = format: cell-based, human; conditions: Homo sapiens, 5-dose; for CC50: Hs-578T, read-out: LC50 (the source's name)
MDA-MB-435 = format: cell-based; conditions: for CC50: read-out: LC50 (the source's name)
OVCAR-5 = format: cell-based, human; conditions: for CC50: read-out: LC50 (the source's name)
MALME-3M = format: cell-based, human; conditions: for CC50: read-out: LC50 (the source's name)
UACC-257 = format: cell-based, human; conditions: for CC50: read-out: LC50 (the source's name)
COLO 205 = format: cell-based, human
U251 = format: cell-based, human; conditions: for CC50: read-out: LC50 (the source's name)
DU-145 = format: cell-based, human; conditions: for CC50: read-out: LC50 (the source's name)
A498 = format: cell-based, human; conditions: for CC50: read-out: LC50 (the source's name)
RPMI-8226 = format: cell-based, human; conditions: for CC50: read-out: LC50 (the source's name)
CAKI-1 = format: cell-based, human; conditions: for CC50: read-out: LC50 (the source's name)
MDA-MB-468 = format: cell-based, human; conditions: for CC50: read-out: LC50 (the source's name)
SF-539 = format: cell-based, human
[1] = Homo sapiens, U-251, U251, 5-dose
[2] = Homo sapiens, RPMI-8226, RPMI-8226, 5-dose
[3] = Homo sapiens, MDA-MB-468, MDA-MB-468, 5-dose

SMILES: Cc1ccc(-c2nc(Nc3ccccc3C(=O)O)c3ccccc3n2)cc1 [6b, 2-((2-(p-Tolyl)quinazolin-4-yl)amino)benzoic acid]
- CC50 (HS 578 T; HS 578 T): < 100 µM
- CC50 (HS 578 T; HS 578T): > 100 µM
- GI50 (HS 578 T; HS 578 T): 10.2 µM
- GI50 (MDA-MB-435; Homo sapiens, MDA-MB-435): 13.9 µM
- CC50 (MDA-MB-435; Homo sapiens, MDA-MB-435, MDA-MB-435, 5-dose): > 100 µM
- GI% (MDA-MB-435; MDA-MB-435, 10 μM): 77%
- Growth Percent (MDA-MB-435; MDA-MB-435, 1.00E-5 Molar): 23.38%
- TGI (MDA-MB-435; MDA-MB-435, 5-dose): 87.2 µM
- TGI (MDA-MB-435; MDA-MB-435, 5-dose, listed as D - 835857): 8.72E-5 Molar
- CC50 (MDA-MB-435; MDA-MB-435, 5-dose): < 100 µM
- CC50 (OVCAR-5; Homo sapiens, OVCAR-5, OVCAR-5, 5-dose): > 100 µM
- GI50 (OVCAR-5; Homo sapiens, OVCAR-5, 5-dose): 21.8 µM
- GI% (OVCAR-5; OVCAR-5, 10 μM): 34%
- Growth Percent (OVCAR-5; OVCAR-5, 1.00E-5 Molar): 65.92%
- TGI (OVCAR-5; OVCAR-5, 5-dose): 68.9 µM
- TGI (OVCAR-5; OVCAR-5, 5-dose, listed as D - 835857): 6.89E-5 Molar
- CC50 (OVCAR-5; OVCAR-5, 5-dose): < 100 µM
- GI% (MALME-3M; 10 μM): 80%
- Growth Percent (MALME-3M; 1.00E-5 Molar): 19.56%
- TGI (MALME-3M; 5-dose): 64.5 µM
- TGI (MALME-3M; 5-dose, listed as D - 835857): 6.45E-5 Molar
- CC50 (MALME-3M; 5-dose): < 100 µM
- GI50 (MALME-3M; Homo sapiens, 5-dose): 15.6 µM
- CC50 (MALME-3M; Homo sapiens, Malme-3M, 5-dose): > 100 µM
- CC50 (UACC-257; Homo sapiens, UACC-257, UACC-257, 5-dose): > 100 µM
- GI50 (UACC-257; Homo sapiens, UACC-257, 5-dose): 15.3 µM
- GI% (UACC-257; UACC-257, 10 μM): 71%
- Growth Percent (UACC-257; UACC-257, 1.00E-5 Molar): 28.64%
- TGI (UACC-257; UACC-257, 5-dose): 90.3 µM
- TGI (UACC-257; UACC-257, 5-dose, listed as D - 835857): 9.03E-5 Molar
- CC50 (UACC-257; UACC-257, 5-dose): < 100 µM
- GI% (COLO 205; COLO 205, 10 μM): – (Only GI% higher than 20% are shown)
- Growth Percent (COLO 205; COLO 205, 1.00E-5 Molar): 80.94%
- TGI (COLO 205; COLO 205, 5-dose): 41.0 µM
- TGI (COLO 205; COLO 205, 5-dose, listed as D - 835857): 4.10E-5 Molar
- GI50 (COLO 205; Homo sapiens, COLO 205, 5-dose): 17.8 µM
- LC50 (concentration killing 50% of cells) (COLO 205; Homo sapiens, COLO 205, 5-dose): 94.1 µM
- GI50 (U251; [1]): 5.58 µM
- CC50 (U251; [1]): > 100 µM
- GI% (U251; U251, 10 μM): 82%
- Growth Percent (U251; U251, 1.00E-5 Molar): 18.45%
- GI50 (U251; U251, 5-dose): 5.6 µM
- TGI (U251; U251, 5-dose): 35.0 µM
- TGI (U251; U251, 5-dose, listed as D - 835857): 3.50E-5 Molar
- CC50 (U251; U251, 5-dose): < 100 µM
- GI% (DU-145; DU-145, 10 μM): 81%
- Growth Percent (DU-145; DU-145, 1.00E-5 Molar): 19.37%
- TGI (DU-145; DU-145, 5-dose): <100 µM
- TGI (DU-145; DU-145, 5-dose, listed as D - 835857): > 1.00E-4 Molar
- CC50 (DU-145; DU-145, 5-dose): < 100 µM
- CC50 (DU-145; Homo sapiens, DU-145, DU-145, 5-dose): > 100 µM
- GI50 (DU-145; Homo sapiens, DU-145, 5-dose): 17.7 µM
- GI% (A498; A498, 10 μM): 78%
- Growth Percent (A498; A498, 1.00E-5 Molar): 21.64%
- TGI (A498; A498, 5-dose): 58.1 µM
- TGI (A498; A498, 5-dose, listed as D - 835857): 5.81E-5 Molar
- CC50 (A498; A498, 5-dose): < 100 µM
- CC50 (A498; Homo sapiens, A498, A498, 5-dose): > 100 µM
- GI50 (A498; Homo sapiens, A498, 5-dose): 19.9 µM
- GI50 (RPMI-8226; [2]): 4.44 µM
- CC50 (RPMI-8226; [2]): > 100 µM
- GI% (RPMI-8226; RPMI-8226, 10 μM): 83%
- Growth Percent (RPMI-8226; RPMI-8226, 1.00E-5 Molar): 17.08%
- GI50 (RPMI-8226; RPMI-8226, 5-dose): 4.4 µM
- TGI (RPMI-8226; RPMI-8226, 5-dose): <100 µM
- TGI (RPMI-8226; RPMI-8226, 5-dose, listed as D - 835857): > 1.00E-4 Molar
- CC50 (RPMI-8226; RPMI-8226, 5-dose): < 100 µM
- GI% (CAKI-1; CAKI-1, 10 μM): 79%
- Growth Percent (CAKI-1; CAKI-1, 1.00E-5 Molar): 21.08%
- TGI (CAKI-1; CAKI-1, 5-dose): <100 µM
- TGI (CAKI-1; CAKI-1, 5-dose, listed as D - 835857): > 1.00E-4 Molar
- CC50 (CAKI-1; CAKI-1, 5-dose): < 100 µM
- CC50 (CAKI-1; Homo sapiens, CAKI-1, CAKI-1, 5-dose): > 100 µM
- GI50 (CAKI-1; Homo sapiens, CAKI-1, 5-dose): 13.8 µM
- GI50 (MDA-MB-468; [3]): 8.29 µM
- CC50 (MDA-MB-468; [3]): > 100 µM
- GI% (MDA-MB-468; MDA-MB-468, 10 μM): 126%
- Growth Percent (MDA-MB-468; MDA-MB-468, 1.00E-5 Molar): -26.88%
- GI50 (MDA-MB-468; MDA-MB-468, 5-dose): 8.3 µM
- TGI (MDA-MB-468; MDA-MB-468, 5-dose, listed as D - 835857): 4.23E-5 Molar
- CC50 (MDA-MB-468; MDA-MB-468, 5-dose): < 100 µM
- GI50 (SF-539; Homo sapiens, SF-539, 5-dose): 11.9 µM
- CC50 (SF-539; Homo sapiens, SF-539, 5-dose, read-out: LC50 (the source's name)): 67.2 µM
- GI% (SF-539; SF-539, 10 μM): 79%
- Growth Percent (SF-539; SF-539, 1.00E-5 Molar): 21.26%
- TGI (SF-539; SF-539, 5-dose): 28.3 µM
- TGI (SF-539; SF-539, 5-dose, listed as D - 835857): 2.83E-5 Molar
